Organism: Rattus norvegicus
Experiment: Open TG-GATES - Regimen: Single
Format: toxicity, organism-based, Sprague-Dawley
Set-up: regimen Single, gender Male, age 6 weeks
Settings: in vivo, po, route gavage; for KIDNEY_L / KIDNEY_R / KIDNEY_TOTAL: tissue Kidney; for ALP / ALT / BUN / CRE / DBIL / GLC / IP / K / Na / RALB / TBIL / TG / TP / gamma-GTP / PL: tissue Plasma; for LIVER: tissue Liver
[1] = 10 mg/kg, 3 h, tissue Blood, dose level Middle
[2] = 10 mg/kg, 3 h, dose level Middle
[3] = 10 mg/kg, 6 h, dose level Middle
[4] = 10 mg/kg, 6 h, tissue Blood, dose level Middle
[5] = 10 mg/kg, 9 h, dose level Middle
[6] = 10 mg/kg, 9 h, tissue Blood, dose level Middle
[7] = 10 mg/kg, 24 h, dose level Middle
[8] = 10 mg/kg, 24 h, tissue Blood, dose level Middle
[9] = 30 mg/kg, 3 h, tissue Blood, dose level High
[10] = 30 mg/kg, 6 h, tissue Blood, dose level High
[11] = 30 mg/kg, 9 h, tissue Blood, dose level High
[12] = 30 mg/kg, 24 h, dose level High
[13] = 30 mg/kg, 24 h, tissue Blood, dose level High

Question: Which results are given for CNCCC(Oc1ccc(C(F)(F)F)cc1)c1ccccc1.Cl (centres undefined) [FLUOXETINE HYDROCHLORIDE]?
Answer: Bas [1]: 0%; Eos [1]: 1.2%; Ht [1]: 41.6%; Lym [1]: 68.4%; MCHC [1]: 32.1%; Ret [1]: 8.7%; WBC [1]: 85.2 x10_2/uL; KIDNEY_L [2]: 1 g; KIDNEY_R [2]: 1 g; KIDNEY_TOTAL [2]: 2 g; ALP [2]: 1509 IU/L; ALT [2]: 36.6 IU/L; BUN [2]: 13.8 mg/dL; CRE [2]: 0.4 mg/dL; DBIL [2]: 0.014 mg/dL; GLC [2]: 201.4 mg/dL; IP [2]: 10.3 mg/dL; K [2]: 5.2 meq/L; Na [2]: 138.6 meq/L; RALB [2]: 4.1 g/dL; TBIL [2]: 0.042 mg/dL; TG [2]: 128.6 mg/dL; TP [2]: 5.9 g/dL; gamma-GTP [2]: 0 IU/L; TERMINAL_BW [3]: 215.2 g; Bas [4]: 0%; Eos [4]: 1%; Ht [4]: 40.8%; Lym [4]: 70%; MCH [4]: 21.9 pg; MCHC [4]: 32.6%; Ret [4]: 8.2%; WBC [4]: 96.4 x10_2/uL; KIDNEY_L [3]: 0.9 g; KIDNEY_R [3]: 1 g; KIDNEY_TOTAL [3]: 1.9 g; LIVER [3]: 10 g; ALP [3]: 1142 IU/L; ALT [3]: 32.8 IU/L; BUN [3]: 10.8 mg/dL; CRE [3]: 0.4 mg/dL; DBIL [3]: 0.008 mg/dL; GLC [3]: 193.8 mg/dL; IP [3]: 9.7 mg/dL; K [3]: 4.9 meq/L; Na [3]: 137.4 meq/L; RALB [3]: 3.9 g/dL; TBIL [3]: 0.038 mg/dL; TG [3]: 85.8 mg/dL; TP [3]: 5.4 g/dL; gamma-GTP [3]: 1 IU/L; TERMINAL_BW [5]: 214.8 g; Bas [6]: 0%; Eos [6]: 1%; Ht [6]: 40.2%; Lym [6]: 75.6%; MCHC [6]: 32.5%; Ret [6]: 7.8%; WBC [6]: 95 x10_2/uL; KIDNEY_L [5]: 1 g; KIDNEY_R [5]: 1 g; KIDNEY_TOTAL [5]: 1.9 g; LIVER [5]: 9.2 g; ALP [5]: 1045.4 IU/L; ALT [5]: 28.8 IU/L; BUN [5]: 10.6 mg/dL; CRE [5]: 0.4 mg/dL; DBIL [5]: 0.006 mg/dL; GLC [5]: 191 mg/dL; IP [5]: 10.8 mg/dL; K [5]: 5 meq/L; Na [5]: 137.9 meq/L; PL [5]: 135 mg/dL; RALB [5]: 3.8 g/dL; TBIL [5]: 0.04 mg/dL; TG [5]: 41.4 mg/dL; TP [5]: 5.3 g/dL; gamma-GTP [5]: 0.6 IU/L; TERMINAL_BW [7]: 227.3 g; Bas [8]: 0%; Eos [8]: 1%; Ht [8]: 41.2%; Lym [8]: 76.2%; MCHC [8]: 32.6%; Ret [8]: 7.7%; WBC [8]: 100.4 x10_2/uL; KIDNEY_L [7]: 1 g; KIDNEY_R [7]: 1 g; KIDNEY_TOTAL [7]: 1.9 g; LIVER [7]: 11 g; ALP [7]: 1378 IU/L; ALT [7]: 34.6 IU/L; BUN [7]: 16.4 mg/dL; CRE [7]: 0.4 mg/dL; DBIL [7]: 0.01 mg/dL; GLC [7]: 192.6 mg/dL; IP [7]: 7.9 mg/dL; K [7]: 5.1 meq/L; Na [7]: 138.1 meq/L; RALB [7]: 3.9 g/dL; TBIL [7]: 0.034 mg/dL; TG [7]: 152.6 mg/dL; TP [7]: 5.5 g/dL; gamma-GTP [7]: 1 IU/L; TERMINAL_BW (30 mg/kg, 3 h, dose level High): 214.6 g; Bas [9]: 0%; Eos [9]: 1.2%; Ht [9]: 39.9%; Lym [9]: 67.4%; MCHC [9]: 32.6%; Ret [9]: 8.7%; WBC [9]: 79.4 x10_2/uL; KIDNEY_L (30 mg/kg, 3 h, dose level High): 0.9 g; KIDNEY_R (30 mg/kg, 3 h, dose level High): 1 g; KIDNEY_TOTAL (30 mg/kg, 3 h, dose level High): 1.9 g; LIVER (30 mg/kg, 3 h, dose level High): 9.8 g; ALP (30 mg/kg, 3 h, dose level High): 1364.6 IU/L; ALT (30 mg/kg, 3 h, dose level High): 36.4 IU/L; BUN (30 mg/kg, 3 h, dose level High): 10.6 mg/dL; CRE (30 mg/kg, 3 h, dose level High): 0.4 mg/dL; DBIL (30 mg/kg, 3 h, dose level High): 0.01 mg/dL; GLC (30 mg/kg, 3 h, dose level High): 201.4 mg/dL; IP (30 mg/kg, 3 h, dose level High): 10.1 mg/dL; K (30 mg/kg, 3 h, dose level High): 4.4 meq/L; Na (30 mg/kg, 3 h, dose level High): 138.6 meq/L; RALB (30 mg/kg, 3 h, dose level High): 4.1 g/dL; TBIL (30 mg/kg, 3 h, dose level High): 0.048 mg/dL; TG (30 mg/kg, 3 h, dose level High): 77.8 mg/dL; TP (30 mg/kg, 3 h, dose level High): 5.7 g/dL; gamma-GTP (30 mg/kg, 3 h, dose level High): 0.2 IU/L; TERMINAL_BW (30 mg/kg, 6 h, dose level High): 217.1 g; Bas [10]: 0%; Eos [10]: 1.2%; Ht [10]: 42%; Lym [10]: 73.2%; MCHC [10]: 32.3%; Ret [10]: 6.9%; WBC [10]: 82.6 x10_2/uL; KIDNEY_L (30 mg/kg, 6 h, dose level High): 0.9 g; KIDNEY_R (30 mg/kg, 6 h, dose level High): 1 g; KIDNEY_TOTAL (30 mg/kg, 6 h, dose level High): 1.9 g; LIVER (30 mg/kg, 6 h, dose level High): 9.3 g; ALP (30 mg/kg, 6 h, dose level High): 1193 IU/L; ALT (30 mg/kg, 6 h, dose level High): 31 IU/L; BUN (30 mg/kg, 6 h, dose level High): 9.2 mg/dL; CRE (30 mg/kg, 6 h, dose level High): 0.4 mg/dL; DBIL (30 mg/kg, 6 h, dose level High): 0.01 mg/dL; GLC (30 mg/kg, 6 h, dose level High): 198.8 mg/dL; IP (30 mg/kg, 6 h, dose level High): 9.9 mg/dL; K (30 mg/kg, 6 h, dose level High): 5.2 meq/L; Na (30 mg/kg, 6 h, dose level High): 137.7 meq/L; PL (30 mg/kg, 6 h, dose level High): 134.4 mg/dL; RALB (30 mg/kg, 6 h, dose level High): 3.8 g/dL; TBIL (30 mg/kg, 6 h, dose level High): 0.038 mg/dL; TG (30 mg/kg, 6 h, dose level High): 47.2 mg/dL; TP (30 mg/kg, 6 h, dose level High): 5.4 g/dL; gamma-GTP (30 mg/kg, 6 h, dose level High): 1 IU/L; TERMINAL_BW (30 mg/kg, 9 h, dose level High): 211.4 g; Bas [11]: 0%; Eos [11]: 0.8%; Ht [11]: 40.9%; Lym [11]: 77.8%; MCHC [11]: 32.4%; Ret [11]: 7.1%; WBC [11]: 90.6 x10_2/uL; KIDNEY_L (30 mg/kg, 9 h, dose level High): 0.9 g; KIDNEY_R (30 mg/kg, 9 h, dose level High): 1 g; KIDNEY_TOTAL (30 mg/kg, 9 h, dose level High): 1.9 g; LIVER (30 mg/kg, 9 h, dose level High): 9 g; ALP (30 mg/kg, 9 h, dose level High): 1165 IU/L; ALT (30 mg/kg, 9 h, dose level High): 28.8 IU/L; BUN (30 mg/kg, 9 h, dose level High): 8.4 mg/dL; CRE (30 mg/kg, 9 h, dose level High): 0.4 mg/dL; DBIL (30 mg/kg, 9 h, dose level High): 0.01 mg/dL; GLC (30 mg/kg, 9 h, dose level High): 202.8 mg/dL; IP (30 mg/kg, 9 h, dose level High): 11.1 mg/dL; K (30 mg/kg, 9 h, dose level High): 5.1 meq/L; Na (30 mg/kg, 9 h, dose level High): 138.2 meq/L; PL (30 mg/kg, 9 h, dose level High): 145.2 mg/dL; RALB (30 mg/kg, 9 h, dose level High): 3.9 g/dL; TBIL (30 mg/kg, 9 h, dose level High): 0.048 mg/dL; TG (30 mg/kg, 9 h, dose level High): 53 mg/dL; TP (30 mg/kg, 9 h, dose level High): 5.4 g/dL; gamma-GTP (30 mg/kg, 9 h, dose level High): 0.2 IU/L; TERMINAL_BW [12]: 222.3 g; Bas [13]: 0%; Eos [13]: 1%; Ht [13]: 40.1%; Lym [13]: 75.4%; MCHC [13]: 32.6%; Ret [13]: 7.8%; WBC [13]: 81 x10_2/uL; KIDNEY_L [12]: 1 g; KIDNEY_R [12]: 1 g; KIDNEY_TOTAL [12]: 2 g; LIVER [12]: 10.5 g; ALP [12]: 1406.6 IU/L; ALT [12]: 31 IU/L; CRE [12]: 0.4 mg/dL; DBIL [12]: 0.01 mg/dL; GLC [12]: 200 mg/dL; IP [12]: 8 mg/dL; K [12]: 5.2 meq/L; Na [12]: 138.1 meq/L; RALB [12]: 4 g/dL; TBIL [12]: 0.028 mg/dL; TG [12]: 100.4 mg/dL; TP [12]: 5.7 g/dL; gamma-GTP [12]: 1 IU/L

Reference: ChEMBL document CHEMBL3885861, “Open TG-GATES”
